For the test, the system named is CCRF-CEM human T-Leukemia cells. The experiment in a line: CCRF-CEM cell migration. It is filed as cell-based. The conditions noted are these: Figure S4. As to the method: [The procedure below names another cell line; the source lists this cell line under the same test.] Migration was assayed in 24-well Transwell chambers (Corning Inc., Corning, NY) using inserts with an 8-µm pore membrane. Membranes were precoated with collagen (human collagen type I/III) and fibronectin (20 µg/mL each). PES43 cells were placed in the upper chamber (2.5×10^5 cells/well) in IMDM containing 1% BSA (migration media) in the presence of AMD3100 or peptides; 100 ng/mL CXCL12 was added to the lower chamber. After 16 h incubation, cells on the upper surface of the filter were removed using a cotton wool swab; migration of cells in migration media alone was compared with migration in media containing CXCL12. The cells were counted in ten different fields (original magnification ×40). The migration index was defined as the ratio between migrating cells in the experimental group and migrated cells in the control group. For the wound closure assay, tested cells were allowed to reach confluence in six-well plates containing serum-depleted growth medium and scratched with pipette tips to make wounds. The wound closure was observed microscopically 6 hours post-wounding (OKO Time Lapse).
(TIF) Click here for additional data file.

Bridges are numbered along the chain shown (N, C = ends). Where no end group is shown, it is not given here.

With “Arg-Ala-[Cys-Arg-Phe-Phe-Cys] (RACRFFC; disulfide 3-7) [Peptide R, CXCL12-mimetic disulfide-cyclic peptide]”, the CCRF-CEM migration result is on record as “inhibited CCRF-CEM human T-Leukemia cells migration in a dose-dependent manner”.

The values are drawn from PMC3772838, “Preclinical Development of a Novel Class of CXCR4 Antagonist Impairing Solid Tumors Growth and Metastases” (PLoS ONE, 2013).
